Source: ChEMBL document CHEMBL3351629, “Modulators of the nuclear receptor retinoic acid receptor-related orphan receptor-γ (RORγ or RORc)” (J Med Chem, 2014)

How the values were obtained:
[1] = biological target: T1, Nuclear receptor ROR-gamma (Mus musculus) (UniProt P51450); assay: Activity at RoRc in mouse CD4+ T cells assessed as inhibition of IL-17 production at 10 uM; assay type: cell-based; conditions: T-cell
T1 sequence (whole entry): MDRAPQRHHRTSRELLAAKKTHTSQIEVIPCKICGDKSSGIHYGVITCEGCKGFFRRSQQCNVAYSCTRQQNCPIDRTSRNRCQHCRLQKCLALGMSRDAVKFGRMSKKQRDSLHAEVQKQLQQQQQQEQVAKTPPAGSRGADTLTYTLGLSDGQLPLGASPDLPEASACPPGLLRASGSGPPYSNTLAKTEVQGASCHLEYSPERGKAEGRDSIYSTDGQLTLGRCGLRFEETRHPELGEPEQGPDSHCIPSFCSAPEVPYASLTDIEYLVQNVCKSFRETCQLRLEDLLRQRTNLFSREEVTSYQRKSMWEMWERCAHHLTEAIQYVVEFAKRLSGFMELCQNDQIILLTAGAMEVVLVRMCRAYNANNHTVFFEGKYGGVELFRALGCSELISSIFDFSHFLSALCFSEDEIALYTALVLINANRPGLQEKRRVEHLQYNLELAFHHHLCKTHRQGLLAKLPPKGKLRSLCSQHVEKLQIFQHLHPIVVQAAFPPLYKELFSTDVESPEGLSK

[2] = system: Mus musculus; assay: Decrease in serum IL-17a level in mouse at 30 mg/kg in presence of anti-CD3 antibody; assay type: functional
[3] = system: Mus musculus; assay: Decrease in serum IL-17a level in mouse at 100 mg/kg in presence of anti-CD3 antibody; assay type: functional
[4] = system: Mus musculus; assay: Decrease in serum IL-17a level in mouse at 300 mg/kg in presence of anti-CD3 antibody; assay type: functional
[5] = biological target: T2, Nuclear receptor ROR-gamma (Homo sapiens, UniProt P51449); assay: Binding affinity to RORgamma (unknown origin)
T2 sequence (P51449 whole entry): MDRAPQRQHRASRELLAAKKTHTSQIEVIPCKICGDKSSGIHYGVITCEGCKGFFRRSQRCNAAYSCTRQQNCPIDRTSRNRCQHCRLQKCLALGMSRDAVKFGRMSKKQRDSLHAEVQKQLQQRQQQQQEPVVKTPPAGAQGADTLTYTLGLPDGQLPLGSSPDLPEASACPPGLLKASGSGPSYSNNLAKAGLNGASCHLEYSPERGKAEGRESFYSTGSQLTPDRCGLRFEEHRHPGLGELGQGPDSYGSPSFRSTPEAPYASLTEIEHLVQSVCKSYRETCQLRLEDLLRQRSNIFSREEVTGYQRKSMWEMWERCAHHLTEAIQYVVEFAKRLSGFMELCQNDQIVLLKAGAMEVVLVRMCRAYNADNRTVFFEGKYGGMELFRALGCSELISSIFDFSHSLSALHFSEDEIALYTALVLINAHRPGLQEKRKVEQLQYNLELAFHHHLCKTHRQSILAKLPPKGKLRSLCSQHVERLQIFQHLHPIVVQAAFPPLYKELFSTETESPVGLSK

Row | SMILES | inhibition [1] [%] | inhibition in vivo at 30 mg/kg [2] [%] | inhibition in vivo at 100 mg/kg [3] [%] | inhibition in vivo at 300 mg/kg [4] [%] | IC50 [5] [µM]
1 | CCn1c2ccccc2c2cc(NC(=O)CC(C)CC(=O)Nc3ccc(C#N)c(Cl)c3)ccc21 (stereo not given) | 96 | 10 | 25 | 53 | –
2 | C[C@H]1O[C@@H](O[C@H]2[C@@H](O)C[C@H](O[C@H]3[C@@H](O)C[C@H](O[C@H]4CC[C@@]5(C)[C@H](CC[C@@H]6[C@@H]5C[C@@H](O)[C@]5(C)[C@@H]([C@@H](CO)CCO)CC[C@]65O)C4)O[C@@H]3C)O[C@@H]2C)C[C@H](O)[C@@H]1O | – | – | – | – | 12
